From ChEMBL document CHEMBL1201862, “PubChem BioAssay data set” (2004)
Activity calls are given as the source filed them.

How the values were obtained:
[1] = general mammalian cell viability loss – inhibitor set, cherry-pick, set 2, cytotoxicity control for miR-122 modulator project, dose response (AID 720697); format: functional, cell-based
[2] = molecular target: T1, Short transient receptor potential channel 4 (Mus musculus, UniProt Q9QUQ5); experiment: calcium entry via TRPC4 opening agents – cell-based, HEK293 TRPC4/mu-opioid, Fluo-4 calcium, dose response (AID 434937); format: functional
T1 sequence (Q9QUQ5 whole entry): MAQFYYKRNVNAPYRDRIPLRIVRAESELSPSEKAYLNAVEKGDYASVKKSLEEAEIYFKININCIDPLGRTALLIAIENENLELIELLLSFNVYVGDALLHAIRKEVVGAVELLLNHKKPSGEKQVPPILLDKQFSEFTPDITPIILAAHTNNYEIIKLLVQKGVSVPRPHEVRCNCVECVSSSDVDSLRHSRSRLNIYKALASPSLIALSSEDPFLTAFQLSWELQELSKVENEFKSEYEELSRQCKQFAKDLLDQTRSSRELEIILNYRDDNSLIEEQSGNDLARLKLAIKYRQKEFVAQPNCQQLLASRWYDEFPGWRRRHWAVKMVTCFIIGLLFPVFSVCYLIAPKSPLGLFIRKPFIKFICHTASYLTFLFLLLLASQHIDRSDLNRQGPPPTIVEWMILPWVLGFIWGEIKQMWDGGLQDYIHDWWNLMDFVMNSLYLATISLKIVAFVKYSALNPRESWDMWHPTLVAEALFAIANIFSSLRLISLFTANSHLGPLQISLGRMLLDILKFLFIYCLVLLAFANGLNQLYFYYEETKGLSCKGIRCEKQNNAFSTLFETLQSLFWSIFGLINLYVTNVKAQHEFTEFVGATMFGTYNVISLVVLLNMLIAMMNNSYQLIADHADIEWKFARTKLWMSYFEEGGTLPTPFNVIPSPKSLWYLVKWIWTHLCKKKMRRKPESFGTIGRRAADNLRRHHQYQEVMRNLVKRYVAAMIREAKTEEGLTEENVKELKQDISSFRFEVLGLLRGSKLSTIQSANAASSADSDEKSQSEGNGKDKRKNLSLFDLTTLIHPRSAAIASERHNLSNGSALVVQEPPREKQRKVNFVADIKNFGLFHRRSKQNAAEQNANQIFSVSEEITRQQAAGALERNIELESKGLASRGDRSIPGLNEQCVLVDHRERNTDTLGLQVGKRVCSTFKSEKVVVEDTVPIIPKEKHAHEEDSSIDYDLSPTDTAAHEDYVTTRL

[3] = general mammalian cell viability loss – activator set, cherry-pick, cytotoxicity control for miR-122 modulator project, dose response (AID 720690); format: functional, cell-based;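 further: HEK293T human cells scored for general mammalian cytotoxicity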
[4] = molecular target: Long-chain-fatty-acid--AMP ligase FadD28 (Mycobacterium tuberculosis, UniProt P9WQ59); experiment: Fluorescence polarization aasay to screen for inhibitors that compete for the binding of FadD28 to a bisubstrate Measured in Biochemical System Using Plate Reader - 2147-01_Inhibitor_Dose_CherryPick_Activity.; format: functional, Mycobacterium tuberculosis H37Rv
[5] = molecular target: T2, Heat shock factor protein 1 (Mus musculus, UniProt P38532); experiment: enhancement of HSF1-driven luciferase signal – cell-based, NIH3T3, luminescence, dose retest, confirmation (AID 435004); format: functional;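 further: stress induced by proteasome inhibitor MG132 added 30 min after compound; luciferase reporter driven by HSF1 response element in NIH3T3 cells; actives raise luminescence as potentiators of the MG132 stress response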
T2 sequence (P38532 whole entry): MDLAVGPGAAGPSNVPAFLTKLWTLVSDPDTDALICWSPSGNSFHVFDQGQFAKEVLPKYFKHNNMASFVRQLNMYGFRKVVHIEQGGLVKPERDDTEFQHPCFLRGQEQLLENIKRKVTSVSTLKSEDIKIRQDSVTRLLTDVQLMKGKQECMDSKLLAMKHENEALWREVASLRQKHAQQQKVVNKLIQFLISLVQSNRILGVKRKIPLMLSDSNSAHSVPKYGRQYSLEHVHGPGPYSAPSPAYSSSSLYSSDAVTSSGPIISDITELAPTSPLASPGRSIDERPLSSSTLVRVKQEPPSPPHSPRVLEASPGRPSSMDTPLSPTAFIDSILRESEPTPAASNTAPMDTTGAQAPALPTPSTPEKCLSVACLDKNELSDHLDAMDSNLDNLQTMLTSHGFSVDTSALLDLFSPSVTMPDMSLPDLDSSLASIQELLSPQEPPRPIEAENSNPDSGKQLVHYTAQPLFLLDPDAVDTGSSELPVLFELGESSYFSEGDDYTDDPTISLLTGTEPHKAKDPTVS

[6] = molecular target: Beta-galactosidase (Escherichia coli, UniProt Q8VNN2); experiment: Dose response counterscreen for EBI2 assay utilizing the enzyme, b-galactosidase.; format: functional
[7] = molecular target: Dual specificity protein phosphatase 3 (Homo sapiens, UniProt P51452); experiment: VHR phosphatase inhibition, dose response, selectivity assay for STEP inhibitor project, biochemical (AID 602374); format: functional; details: read-out: IC50_Mean
[8] = molecular target: T3, Low molecular weight phosphotyrosine protein phosphatase (Homo sapiens, UniProt P24666); format: functional; details: read-out: IC50_Mean
T3 sequence (P24666 whole entry): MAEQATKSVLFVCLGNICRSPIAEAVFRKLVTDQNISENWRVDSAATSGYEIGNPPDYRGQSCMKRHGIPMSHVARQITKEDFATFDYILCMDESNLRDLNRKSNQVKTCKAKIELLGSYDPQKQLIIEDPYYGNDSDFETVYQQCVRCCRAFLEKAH

[9] = molecular target: T4, Carboxy-terminal domain RNA polymerase II polypeptide A small phosphatase 1 (Homo sapiens, UniProt Q9GZU7); experiment: CTDSP1 inhibitors, concentration-response, biochemical, absorbance readout, ultra-high-throughput screen actives (AID 540297); format: functional
T4 sequence (Q9GZU7 whole entry): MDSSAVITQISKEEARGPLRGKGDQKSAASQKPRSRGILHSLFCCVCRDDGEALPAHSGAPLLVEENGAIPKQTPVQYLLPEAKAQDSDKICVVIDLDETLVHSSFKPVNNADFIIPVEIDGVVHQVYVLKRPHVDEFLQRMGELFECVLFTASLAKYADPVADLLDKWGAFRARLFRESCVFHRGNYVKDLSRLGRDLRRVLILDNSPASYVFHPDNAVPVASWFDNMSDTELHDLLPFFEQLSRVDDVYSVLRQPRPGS

[10] = molecular target: Tyrosine-protein phosphatase non-receptor type 11 (Homo sapiens, UniProt Q06124); experiment: PTPN11 enzyme inhibitors – biochemical, selectivity assay for STEP inhibitor project, dose response (AID 602367); format: functional; details: read-out: IC50_Mean
[11] = molecular target: T5, Tyrosine-protein phosphatase non-receptor type 22 (Homo sapiens, UniProt Q9Y2R2); experiment: lymphoid phosphatase LYP inhibitors – biochemical, selectivity assay for STEP inhibitor project, dose response (AID 624241); format: functional
T5 sequence (Q9Y2R2 whole entry): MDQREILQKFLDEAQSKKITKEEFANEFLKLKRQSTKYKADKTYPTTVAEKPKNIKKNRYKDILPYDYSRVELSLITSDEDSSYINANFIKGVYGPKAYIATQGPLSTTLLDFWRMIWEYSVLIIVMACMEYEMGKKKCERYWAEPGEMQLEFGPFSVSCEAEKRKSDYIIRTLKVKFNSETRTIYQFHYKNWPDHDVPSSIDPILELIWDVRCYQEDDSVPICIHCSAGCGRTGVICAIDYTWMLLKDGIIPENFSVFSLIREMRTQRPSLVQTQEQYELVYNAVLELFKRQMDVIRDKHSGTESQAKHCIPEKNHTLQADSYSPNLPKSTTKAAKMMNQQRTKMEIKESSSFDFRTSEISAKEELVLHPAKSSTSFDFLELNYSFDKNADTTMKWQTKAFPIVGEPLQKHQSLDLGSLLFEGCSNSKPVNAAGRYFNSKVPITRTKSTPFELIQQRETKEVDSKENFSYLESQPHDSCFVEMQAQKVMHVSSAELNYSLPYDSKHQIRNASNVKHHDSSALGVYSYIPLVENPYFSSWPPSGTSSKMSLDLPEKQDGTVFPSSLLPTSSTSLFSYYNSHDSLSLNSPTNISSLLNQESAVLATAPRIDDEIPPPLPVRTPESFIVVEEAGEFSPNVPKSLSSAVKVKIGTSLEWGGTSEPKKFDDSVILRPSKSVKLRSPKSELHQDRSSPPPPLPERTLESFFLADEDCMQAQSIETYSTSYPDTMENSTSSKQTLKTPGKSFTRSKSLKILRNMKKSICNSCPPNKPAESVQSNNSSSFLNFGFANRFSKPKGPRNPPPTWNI

[12] = molecular target: T6, Small ubiquitin-related modifier 1 (Homo sapiens, UniProt P63165); experiment: SUMO1 protein interaction blockers, potency – biochemical, fluorescence polarization, uHTS hits, dose response (AID 624382); format: functional; details: read-out: IC50_Mean
[13] = molecular target: T6, Small ubiquitin-related modifier 1; experiment: SUMO1 protein-protein binding blockers, potency – biochemical, FRET, dose response (AID 624383); format: functional; details: read-out: IC50_Mean
[14] = molecular target: T3, Low molecular weight phosphotyrosine protein phosphatase; format: functional; details: read-out: IC50_Mean; remark: listed apart in the source
[15] = molecular target: Tyrosine-protein phosphatase non-receptor type 5 (Homo sapiens, UniProt P54829); experiment: PTPN5 enzyme inhibition – biochemical, fluorescence intensity, uHTS hits, confirmation (AID 602372); format: functional; details: read-out: IC50_Mean
[16] = mouse embryonic fibroblast toxicity – cell-based, plate reader, dry powder, set 2, cytotoxicity control, dose response (AID 652280); format: functional; details: NIH3T3
[17] = T. cruzi growth inhibition in host cells, dose response, cell-based, plate reader, dry powder, set 2 (AID 652275); format: functional
[18] = HGIII-sPLA2 enzyme inhibition potency – biochemical, QFRET, IC50, dose response (AID 743457);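 further: green fluorescence rise as the enzyme cleaves BODIPY PC-A2 in liposomes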
[19] = molecular target: Paired box protein Pax-8 (Homo sapiens, UniProt Q06710); experiment: PAX8 transcriptional activity inhibition in RMG-I – RMG-I cells, luciferase, cherry-pick, dose response (AID 687027); format: functional, cell-based;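 further: luciferase reporter driven by Pax8 target thyroperoxidase promoter measured by SteadyGlo luminescence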
[20] = toxicity to human hepatoma HepG2 cells – cell-based, cherry-picked samples, cytotoxicity control, dose response (AID 1159577); format: functional
[21] = IGROV1 cell killing – plate reader, dry powder samples, PAX8 inhibitor project, dose response (AID 743043); format: functional, cell-based; details: IGROV-1
[22] = P. falciparum Dd2 growth inhibitors, dose response, SYBR Green, cherry-picked samples (AID 1159567); format: functional, cell-based
[23] = viability loss in HEK293 cells – cell-based, plate reader, cherry-picked samples, cytotoxicity control, dose response (AID 743446); format: functional
[24] = blockers of bursicon-stimulated LGR2 cAMP reporter – cell-based, HEK293, CRE-luciferase reporter, cherry pick, set 2, dose response (AID 743343); format: functional;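 further: transfected cells were stimulated with diluted bursicon conditioned medium after compound addition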
[25] = A549 cell cytotoxicity, dose response, cytotoxicity control, plate reader, cherry-pick, antagonist series (AID 743412); format: functional, cell-based
[26] = toxicity toward HepG2 liver cells – cell-based, plate reader, cherry-pick, antagonist series, cytotoxicity control, dose response (AID 743416); format: functional
[27] = blockade of melanocortin 4 receptor signaling – cell-based, plate reader, cherry pick, counter-screen for LGR2 antagonist project, dose response (AID 743444); format: functional;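 further: transfected HEK 293 cells stimulated with alpha-MSH peptide; potency of inhibitors of the alpha-MSH evoked signal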
[28] = molecular target: T2, Heat shock factor protein 1; experiment: decrease of HSF1-responsive luciferase luminescence – cell-based, NIH3T3, dose retest, confirmation (AID 2382); format: functional;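 further: NIH3T3 fibroblasts with HSF1-driven luciferase reporter stressed by proteasome inhibitor MG132; luminescence from HSF1-driven luciferase expression after 8 hours of MG132 stress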
[29] = Luminescence Cell-Based Dose Retest to Confirm Inhibitors of Cancer Stem Cells. [Related pubchem assays (depositor defined):AID2717, AID2721]; format: functional; details: Homo sapiens
[30] = tested on: HEK293; experiment: EBV LMP1 TES2 canonical NF-kB signalling blockers – cell-based, HEK293, luciferase, cherry-pick, dose response (AID 588343); format: functional; details: Homo sapiens
[31] = tested on: INS1; experiment: INS-1E survival protection against cytokine death – cell-based, luminescence, retest, dose response (AID 449756); format: functional; details: Rattus norvegicus;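 further: cell death triggered by IL-1 beta plus TNF-alpha plus IFN-gamma mixture; protective hits raise ATP signal compared with cytokine alone wells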

Chain of Tyrosine-protein phosphatase non-receptor type 11 (Q06124 whole entry): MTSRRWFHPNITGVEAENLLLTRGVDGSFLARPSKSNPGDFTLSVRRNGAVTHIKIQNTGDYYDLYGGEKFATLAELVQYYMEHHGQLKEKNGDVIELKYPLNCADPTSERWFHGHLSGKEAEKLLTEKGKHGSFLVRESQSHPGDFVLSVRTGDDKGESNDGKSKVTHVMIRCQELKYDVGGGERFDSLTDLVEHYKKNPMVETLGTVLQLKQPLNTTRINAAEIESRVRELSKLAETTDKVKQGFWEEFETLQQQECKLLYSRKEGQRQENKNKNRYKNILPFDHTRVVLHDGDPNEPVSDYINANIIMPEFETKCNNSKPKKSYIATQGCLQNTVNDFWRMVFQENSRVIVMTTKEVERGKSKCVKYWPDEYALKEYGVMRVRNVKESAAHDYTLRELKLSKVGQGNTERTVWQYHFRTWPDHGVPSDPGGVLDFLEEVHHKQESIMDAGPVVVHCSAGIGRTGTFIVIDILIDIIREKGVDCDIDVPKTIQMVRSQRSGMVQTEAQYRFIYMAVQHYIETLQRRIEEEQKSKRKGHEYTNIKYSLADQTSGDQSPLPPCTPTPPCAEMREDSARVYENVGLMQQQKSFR
Chain of Dual specificity protein phosphatase 3 (P51452 whole entry): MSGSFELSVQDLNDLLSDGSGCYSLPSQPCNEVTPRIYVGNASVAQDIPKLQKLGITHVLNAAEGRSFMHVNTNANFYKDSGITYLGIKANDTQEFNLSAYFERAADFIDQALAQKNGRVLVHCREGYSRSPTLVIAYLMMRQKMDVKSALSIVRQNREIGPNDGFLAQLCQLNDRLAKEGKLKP
T6 sequence (P63165 whole entry): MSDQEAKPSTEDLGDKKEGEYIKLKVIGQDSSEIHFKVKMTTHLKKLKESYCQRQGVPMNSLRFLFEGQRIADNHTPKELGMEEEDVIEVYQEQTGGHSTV
Chain of Tyrosine-protein phosphatase non-receptor type 5 (P54829 whole entry): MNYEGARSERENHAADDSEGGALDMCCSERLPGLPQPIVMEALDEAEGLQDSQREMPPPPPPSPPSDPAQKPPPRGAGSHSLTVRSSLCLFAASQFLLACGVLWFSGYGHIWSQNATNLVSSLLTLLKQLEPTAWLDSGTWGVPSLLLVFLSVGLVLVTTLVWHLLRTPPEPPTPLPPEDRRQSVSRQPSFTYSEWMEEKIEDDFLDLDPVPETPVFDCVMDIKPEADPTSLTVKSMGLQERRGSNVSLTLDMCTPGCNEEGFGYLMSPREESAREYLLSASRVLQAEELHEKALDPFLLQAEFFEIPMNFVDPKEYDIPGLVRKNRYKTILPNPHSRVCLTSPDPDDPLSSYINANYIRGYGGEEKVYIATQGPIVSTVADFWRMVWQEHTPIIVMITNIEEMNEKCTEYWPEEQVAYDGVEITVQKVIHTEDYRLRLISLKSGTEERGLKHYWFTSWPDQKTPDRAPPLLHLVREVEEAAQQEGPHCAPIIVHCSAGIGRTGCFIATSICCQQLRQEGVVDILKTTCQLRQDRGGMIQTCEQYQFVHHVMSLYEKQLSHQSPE
Chain of Paired box protein Pax-8 (Q06710 whole entry): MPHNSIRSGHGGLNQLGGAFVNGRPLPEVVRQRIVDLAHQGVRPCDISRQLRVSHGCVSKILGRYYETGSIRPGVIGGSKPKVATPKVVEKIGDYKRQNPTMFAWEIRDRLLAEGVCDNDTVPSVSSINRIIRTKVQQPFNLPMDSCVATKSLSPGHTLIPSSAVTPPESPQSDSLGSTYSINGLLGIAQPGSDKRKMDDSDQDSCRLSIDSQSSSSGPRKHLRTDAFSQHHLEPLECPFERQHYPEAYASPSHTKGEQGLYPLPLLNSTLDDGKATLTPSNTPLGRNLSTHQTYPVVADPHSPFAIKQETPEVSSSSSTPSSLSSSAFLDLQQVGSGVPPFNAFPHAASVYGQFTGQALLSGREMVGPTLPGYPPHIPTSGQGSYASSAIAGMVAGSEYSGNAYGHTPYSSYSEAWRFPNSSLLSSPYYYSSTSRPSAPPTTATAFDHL
Chain of Beta-galactosidase (Q8VNN2 whole entry): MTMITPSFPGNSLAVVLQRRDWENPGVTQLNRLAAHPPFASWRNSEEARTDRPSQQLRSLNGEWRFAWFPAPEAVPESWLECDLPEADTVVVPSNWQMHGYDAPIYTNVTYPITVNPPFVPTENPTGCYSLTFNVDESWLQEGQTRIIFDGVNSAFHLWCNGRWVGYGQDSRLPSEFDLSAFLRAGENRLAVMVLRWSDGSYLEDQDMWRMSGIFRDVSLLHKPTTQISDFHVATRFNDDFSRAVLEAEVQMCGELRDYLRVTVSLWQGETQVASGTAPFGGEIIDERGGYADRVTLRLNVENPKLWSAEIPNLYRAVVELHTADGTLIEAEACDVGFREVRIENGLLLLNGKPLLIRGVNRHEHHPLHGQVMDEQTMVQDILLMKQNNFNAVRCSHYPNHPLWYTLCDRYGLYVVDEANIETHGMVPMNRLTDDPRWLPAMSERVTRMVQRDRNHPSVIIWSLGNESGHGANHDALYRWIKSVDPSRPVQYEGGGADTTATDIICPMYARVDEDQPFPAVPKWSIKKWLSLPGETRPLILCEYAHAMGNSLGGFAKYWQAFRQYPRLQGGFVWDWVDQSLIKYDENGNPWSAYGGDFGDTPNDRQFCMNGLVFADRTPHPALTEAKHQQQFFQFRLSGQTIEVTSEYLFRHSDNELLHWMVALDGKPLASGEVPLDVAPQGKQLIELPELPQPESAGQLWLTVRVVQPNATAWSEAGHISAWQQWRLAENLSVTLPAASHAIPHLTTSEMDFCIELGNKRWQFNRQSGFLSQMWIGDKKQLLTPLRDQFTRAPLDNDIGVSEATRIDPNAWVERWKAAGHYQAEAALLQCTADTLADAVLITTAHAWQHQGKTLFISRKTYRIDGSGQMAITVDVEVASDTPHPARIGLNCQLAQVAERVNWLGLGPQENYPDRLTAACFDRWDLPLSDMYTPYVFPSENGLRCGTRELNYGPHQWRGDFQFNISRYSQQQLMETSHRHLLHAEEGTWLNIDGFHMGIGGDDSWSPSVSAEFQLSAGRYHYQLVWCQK
Chain of Long-chain-fatty-acid--AMP ligase FadD28 (P9WQ59 whole entry): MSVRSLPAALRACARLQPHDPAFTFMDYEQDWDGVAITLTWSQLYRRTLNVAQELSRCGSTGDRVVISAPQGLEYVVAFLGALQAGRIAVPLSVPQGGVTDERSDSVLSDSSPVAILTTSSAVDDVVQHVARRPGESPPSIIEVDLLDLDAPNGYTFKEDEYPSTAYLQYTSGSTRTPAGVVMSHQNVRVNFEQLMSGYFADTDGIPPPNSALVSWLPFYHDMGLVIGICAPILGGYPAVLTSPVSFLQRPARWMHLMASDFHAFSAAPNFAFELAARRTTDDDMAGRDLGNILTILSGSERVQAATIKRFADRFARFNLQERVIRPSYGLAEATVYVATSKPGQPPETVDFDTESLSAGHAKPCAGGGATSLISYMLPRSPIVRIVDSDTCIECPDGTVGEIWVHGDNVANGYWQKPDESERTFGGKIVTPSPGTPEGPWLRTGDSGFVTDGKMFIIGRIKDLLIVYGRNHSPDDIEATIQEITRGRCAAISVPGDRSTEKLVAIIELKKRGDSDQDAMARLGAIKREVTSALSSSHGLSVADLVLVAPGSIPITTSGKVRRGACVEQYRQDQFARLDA

SMILES: FC(F)(F)c1cnc(N2CCCN(C(S)=Nc3ccccc3)CC2)c(Cl)c1
- AC50 [1]: 3.78 µM (active)
- EC50 [2]: 0.421 µM (active)
- AC50 [3]: 26.9 µM (active)

SMILES: CCn1c(C)cc(/C=C2\NC(=O)N(CC(=O)Nc3cccc(C)c3)C2=O)c1C
- AC50 [4]: 77.2 µM (active)

SMILES: CCn1cc(C(=O)NN)c(=O)c2cc(F)c(NC3CCCCC3)cc21
- EC50 [5]: > 260 µM (inactive)
- IC50 [6]: > 80 µM (inactive)

SMILES: Cc1cc(C(=O)N/N=C/c2ccc(-c3ccc([N+](=O)[O-])cc3Cl)o2)[nH]n1
- IC50 [7]: 1.36 µM (active)
- IC50 [8]: > 80 µM (inactive)
- IC50 [9]: 7.05 µM (active)
- IC50 [10]: 3.42 µM (active)
- IC50 [11]: > 100 µM (inactive)
- IC50 [12]: > 66.6 µM (inactive)
- IC50 [13]: 13.8 µM (active)
- IC50 [14]: 19 µM (active)
- IC50 [15]: 6.83 µM (active)

SMILES: CC(C)N1C[C@@H](CN(C)Cc2ccc(Oc3ccccc3)cc2)Oc2c(NC(=O)c3ccncc3)cccc2C1=O
- AC50 [16]: 2.36 µM (active)
- AC50 [17]: 0.00223 µM (active)

SMILES: O=C(NN=C(S)Nc1ccc(F)cc1)[C@H]1C[C@@H]1c1ccccc1
- IC50 [18]: > 122 µM (inactive)

SMILES: C[C@@H]1CN([C@@H](C)CO)C(=O)Cc2cc(NC(=O)Nc3ccccc3)ccc2O[C@H]1CN(C)Cc1ccc(Oc2ccccc2)cc1
- AC50 [19]: 9.84 µM (active)
- AC50 [20]: 12.9 µM (active)
- AC50 [21]: 55.6 µM (active)
- AC50 [22]: 1.05 µM (active)

SMILES: COc1ccc(Cl)cc1N=C(S)N(CCCN1CCOCC1)Cc1cn(C)c2ccccc12
- IC50 [7]: 0.754 µM (active)
- IC50 [10]: 2.07 µM (active)
- IC50 [11]: 38.5 µM (inactive)
- IC50 [15]: 13.9 µM (active)

SMILES: CC(C)N1CC[C@@H](CN(C)Cc2ccc(Oc3ccccc3)cc2)Oc2c(NC(=O)c3ccncc3)cccc2C1=O
- AC50 [16]: 23.4 µM (active)
- AC50 [17]: 0.0195 µM (active)

SMILES: O=C(O)c1ccc2nc(-c3ccccc3)sc2c1
- AC50 [23]: > 52 µM (inactive)
- AC50 [24]: 3.7 µM (active)
- AC50 [25]: > 52 µM (inactive)
- AC50 [26]: > 52 µM (inactive)
- AC50 [27]: 3.35 µM (active)
- EC50 [28]: 5.85 µM (active)

SMILES: Cc1cc(C)nc(SCc2ccc(C(=O)N/N=C/c3cccc(O)c3O)cc2)n1
- AC50 [29]: 3.83 µM (active)
- AC50 [30]: 9.36 µM (active)
- IC50 [18]: > 122 µM (inactive)
- AC50 [31]: 2.22 µM (active)
